Legend:
c-Kit kinase = c-Kit kinase (Homo sapiens, UniProt P10721); assay: c-Kit kinase biochemical activity assay (AlphaScreen, biotin-(E4Y)10 phosphorylation); settings: 100 μM ATP; read-out: Biochemical Inhibition IC50 Kit
How it was run: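 AlphaScreen read-out (streptavidin donor, anti-phosphotyrosine PY20 acceptor beads, EDTA stop) of c-Kit activity. Reaction: 0.75 ng kinase, 100 µM ATP, 30 nM biotin-(E4Y)10, 25 mM HEPES pH 7.5, 2 mM MgCl2, 2 mM MnCl2, 5% DMSO, 1 h room temperature. IC50 derived over an 8-point, two-fold dilution series.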

BCR-NTRK3 BaF3 cells = target: T1, BCR-NTRK3 BaF3 cells (Homo sapiens, UniProt Q16288); assay: BaF3 BCR-NTRK3 cell proliferation assay (ATPlite); assay type: cell-based; settings: read-out: Inhibition of Cell Proliferation IC50, BCR/BaF3 TrkC
T1 construct: fused on or other part: P11274 (Breakpoint cluster region protein)
How it was run: (§1)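 IL-3-free growth, 3-day compound exposure (8-point 1:3 titration, top 10 μM, DMSO control), 37 °C 5% CO2. BaF3 10,000 or MV-4-11 25,000 cells/well, plated overnight beforehand. Read-out ATPlite luminescence vs concentration → IC50.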

BCR-NTRK1 BaF3 cells = target: T2, BCR-NTRK1 BaF3 cells (Homo sapiens, UniProt P04629); assay: BaF3 BCR-NTRK1 cell proliferation assay (ATPlite); assay type: cell-based; settings: read-out: Inhibition of Cell Proliferation IC50, BCR/BaF3 TrkA
T2 construct: fused on or other part: P11274 (Breakpoint cluster region protein)
How it was run: as §1

BCR-NTRK2 BaF3 cells = target: T3, BCR-NTRK2 BaF3 cells (Homo sapiens, UniProt Q16620); assay: BaF3 BCR-NTRK2 cell proliferation assay (ATPlite); assay type: cell-based; settings: read-out: Inhibition of Cell Proliferation IC50, BCR/BaF3 TrkB
T3 construct: fused on or other part: P11274 (Breakpoint cluster region protein)
How it was run: as §1

T1 sequence (Q16288 whole entry, the tested form may be a part): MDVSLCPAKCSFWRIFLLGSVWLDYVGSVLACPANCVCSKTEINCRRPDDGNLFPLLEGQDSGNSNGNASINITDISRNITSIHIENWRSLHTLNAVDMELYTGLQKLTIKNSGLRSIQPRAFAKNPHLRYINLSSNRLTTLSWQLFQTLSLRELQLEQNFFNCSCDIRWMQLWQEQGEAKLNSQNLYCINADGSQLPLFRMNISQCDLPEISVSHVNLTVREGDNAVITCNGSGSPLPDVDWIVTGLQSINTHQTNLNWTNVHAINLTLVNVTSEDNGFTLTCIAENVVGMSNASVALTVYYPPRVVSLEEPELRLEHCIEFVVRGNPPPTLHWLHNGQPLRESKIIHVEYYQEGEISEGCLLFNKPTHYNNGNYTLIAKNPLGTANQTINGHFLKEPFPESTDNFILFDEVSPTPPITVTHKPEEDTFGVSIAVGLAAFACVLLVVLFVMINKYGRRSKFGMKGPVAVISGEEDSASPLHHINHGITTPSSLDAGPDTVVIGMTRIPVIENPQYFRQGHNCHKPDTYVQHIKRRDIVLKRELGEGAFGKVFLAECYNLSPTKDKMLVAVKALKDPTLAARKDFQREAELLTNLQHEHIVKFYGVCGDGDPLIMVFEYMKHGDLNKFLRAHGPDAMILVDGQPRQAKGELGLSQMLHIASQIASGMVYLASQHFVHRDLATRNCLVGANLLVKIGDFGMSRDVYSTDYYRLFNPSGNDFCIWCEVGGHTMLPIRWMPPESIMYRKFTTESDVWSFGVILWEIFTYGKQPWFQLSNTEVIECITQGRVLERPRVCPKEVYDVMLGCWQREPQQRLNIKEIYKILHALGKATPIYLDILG
T3 sequence (Q16620 538-807): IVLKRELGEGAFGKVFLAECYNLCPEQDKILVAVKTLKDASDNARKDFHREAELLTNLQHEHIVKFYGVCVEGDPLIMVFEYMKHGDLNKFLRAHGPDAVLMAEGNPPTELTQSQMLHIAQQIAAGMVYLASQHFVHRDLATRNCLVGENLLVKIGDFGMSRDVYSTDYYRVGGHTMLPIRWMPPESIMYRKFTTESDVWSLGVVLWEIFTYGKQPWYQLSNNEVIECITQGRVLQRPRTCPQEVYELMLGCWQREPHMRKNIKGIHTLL
Sequence of c-Kit kinase (P10721 26-976): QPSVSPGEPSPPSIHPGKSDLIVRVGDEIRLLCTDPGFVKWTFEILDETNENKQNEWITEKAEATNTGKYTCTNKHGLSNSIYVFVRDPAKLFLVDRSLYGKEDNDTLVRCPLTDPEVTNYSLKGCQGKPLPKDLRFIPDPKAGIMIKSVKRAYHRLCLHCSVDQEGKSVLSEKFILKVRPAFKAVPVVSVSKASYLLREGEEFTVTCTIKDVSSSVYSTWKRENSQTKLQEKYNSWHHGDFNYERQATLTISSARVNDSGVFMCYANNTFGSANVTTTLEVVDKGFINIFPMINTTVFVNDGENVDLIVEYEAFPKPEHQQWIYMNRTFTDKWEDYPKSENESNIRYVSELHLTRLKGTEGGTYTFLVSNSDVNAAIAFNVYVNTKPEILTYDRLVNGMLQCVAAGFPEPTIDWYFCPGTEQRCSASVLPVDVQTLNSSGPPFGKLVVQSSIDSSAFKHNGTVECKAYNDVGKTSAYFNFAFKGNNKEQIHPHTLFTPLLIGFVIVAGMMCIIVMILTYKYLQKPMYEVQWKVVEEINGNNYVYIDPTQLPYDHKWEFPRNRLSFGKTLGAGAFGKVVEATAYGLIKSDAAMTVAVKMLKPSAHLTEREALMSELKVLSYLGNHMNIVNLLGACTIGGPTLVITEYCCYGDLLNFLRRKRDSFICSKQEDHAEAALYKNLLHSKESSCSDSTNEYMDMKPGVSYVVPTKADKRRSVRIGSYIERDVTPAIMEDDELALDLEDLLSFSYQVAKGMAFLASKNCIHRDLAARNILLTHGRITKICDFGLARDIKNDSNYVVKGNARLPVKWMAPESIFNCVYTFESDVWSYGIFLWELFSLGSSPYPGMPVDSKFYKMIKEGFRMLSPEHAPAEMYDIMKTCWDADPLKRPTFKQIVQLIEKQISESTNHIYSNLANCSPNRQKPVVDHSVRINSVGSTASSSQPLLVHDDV
T2 sequence (P04629 510-781): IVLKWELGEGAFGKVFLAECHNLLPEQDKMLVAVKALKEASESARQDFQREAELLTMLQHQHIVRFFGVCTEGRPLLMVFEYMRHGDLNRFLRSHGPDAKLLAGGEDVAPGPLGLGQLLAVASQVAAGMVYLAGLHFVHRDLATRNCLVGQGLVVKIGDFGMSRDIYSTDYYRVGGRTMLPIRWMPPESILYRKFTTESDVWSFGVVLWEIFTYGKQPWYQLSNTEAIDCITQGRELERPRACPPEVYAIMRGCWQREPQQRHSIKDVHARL

Compound	IC50 (c-Kit kinase)	IC50 (BCR-NTRK3 BaF3 cells)	IC50 (BCR-NTRK1 BaF3 cells)	IC50 (BCR-NTRK2 BaF3 cells)
Cc1cnc2[nH]cc(Cc3ccc(NC4CCCCC4)nc3F)c2c1 [Compound P-3008, cyclohexyl-[6-fluoro-5-(5-methyl-1H-pyrrolo[2,3-b]pyridin-3-ylmethyl)-pyridin-2-yl]-amine]	< 1000 nM			
Nc1ncnc2[nH]cc(C(=O)c3ccc(Nc4ccc(C5CC5)nc4)nc3F)c12 [Compound P-4048, (4-amino-7H-pyrrolo[2,3-d]pyrimidin-5-yl)-[6-[(6-cyclopropyl-3-pyridyl)amino]-2-fluoro-3-pyridyl]methanone]	< 10 nM	< 10 nM	< 1000 nM	< 10 nM
Nc1ncnc2[nH]cc(C(=O)c3ccc(NC4CCC(F)(F)CC4)nc3Cl)c12 [Compound P-4046, (4-amino-7H-pyrrolo[2,3-d]pyrimidin-5-yl)-[2-chloro-6-[(4,4-difluorocyclohexyl)amino]-3-pyridyl]methanone]	< 1000 nM	< 1000 nM	< 1000 nM	< 1000 nM
CC(C)=CNc1ncnc2[nH]cc(C(=O)c3ccc(NC4CCC(F)(F)CC4)nc3Cl)c12 [Compound P-4047, [2-chloro-6-[(4,4-difluorocyclohexyl)amino]-3-pyridyl]-[4-(2-methylprop-1-enylamino)-7H-pyrrolo[2,3-d]pyrimidin-5-yl]methanone]	> 1000 nM	> 1000 nM	> 1000 nM	> 1000 nM
O=C(c1ccc(Nc2ccc(C3CC3)nc2)nc1F)c1c[nH]c2ncnc(C3CC3)c12 [Compound P-4040, [6-(6-Cyclopropyl-pyridin-3-ylamino)-2-fluoro-pyridin-3-yl]-(4-cyclopropyl-7H-pyrrolo[2,3-d]pyrimidin-5-yl)-methanone]	< 100 nM	< 10 nM	< 10 nM	< 10 nM
Fc1nc(Nc2ccc(C3CC3)nc2)ccc1Cc1c[nH]c2ncnc(C3CC3)c12 [Compound P-4041, (6-Cyclopropyl-pyridin-3-yl)-[5-(4-cyclopropyl-7H-pyrrolo[2,3-d]pyrimidin-5-ylmethyl)-6-fluoro-pyridin-2-yl]-amine]	< 100 nM	< 10 nM	< 10 nM	< 10 nM
Clc1cnc2[nH]cc(Cc3cnc(NC4CCC4)nc3)c2c1 [Compound P-3007, [5-(5-Chloro-1H-pyrrolo[2,3-b]pyridin-3-ylmethyl)-pyrimidin-2-yl]-cyclobutyl-amine]	> 1000 nM	> 10000 nM	> 10000 nM	> 10000 nM

Second part, the compound after the results:

IC50 (c-Kit kinase)	IC50 (BCR-NTRK3 BaF3 cells)	IC50 (BCR-NTRK1 BaF3 cells)	IC50 (BCR-NTRK2 BaF3 cells)	Compound
> 1000 nM	< 10 nM	< 1000 nM	< 1000 nM	CNc1ncnc2[nH]cc(C(=O)c3cnc(NC4CCC(F)(F)CC4)c(F)c3)c12 [Compound P-4054, [6-[(4,4-difluorocyclohexyl)amino]-5-fluoro-3-pyridyl]-[4-(methylamino)-7H-pyrrolo[2,3-d]pyrimidin-5-yl]methanone]
> 1000 nM	< 10 nM	< 1000 nM	< 1000 nM	O=C(c1cnc(NC2CCC(F)(F)CC2)c(F)c1)c1c[nH]c2ncnc(NCC(F)(F)F)c12 [Compound P-4052, [6-[(4,4-difluorocyclohexyl)amino]-5-fluoro-3-pyridyl]-[4-(2,2,2-trifluoroethylamino)-7H-pyrrolo[2,3-d]pyrimidin-5-yl]methanone]
< 1000 nM	< 1000 nM	< 1000 nM	< 1000 nM	CCNc1ncnc2[nH]cc(C(=O)c3ccc(NC4CCC(F)(F)CC4)nc3Cl)c12 [Compound P-4050, [2-chloro-6-[(4,4-difluorocyclohexyl)amino]-3-pyridyl]-[4-(ethylamino)-7H-pyrrolo[2,3-d]pyrimidin-5-yl]methanone]
< 1000 nM	< 10 nM	< 10 nM	< 10 nM	O=C(c1cnc(NC2CCC(F)(F)CC2)c(F)c1)c1c[nH]c2ncnc(NC3CC3)c12 [Compound P-4053, [4-(cyclopropylamino)-7H-pyrrolo[2,3-d]pyrimidin-5-yl]-[6-[(4,4-difluorocyclohexyl)amino]-5-fluoro-3-pyridyl]methanone]
< 1000 nM	< 1000 nM	< 1000 nM	< 1000 nM	CC(C)(O)CNc1ncnc2[nH]cc(C(=O)c3ccc(Nc4ccc(C5CC5)nc4)nc3F)c12 [Compound P-4049, [6-[(6-cyclopropyl-3-pyridyl)amino]-2-fluoro-3-pyridyl]-[4-[(2-hydroxy-2-methyl-propyl)amino]-7H-pyrrolo[2,3-d]pyrimidin-5-yl]methanone]
< 1000 nM	< 10 nM	< 1000 nM	< 10 nM	CCNc1ncnc2[nH]cc(C(=O)c3cnc(NC4CCC(F)(F)CC4)c(F)c3)c12 [Compound P-4051, [6-[(4,4-difluorocyclohexyl)amino]-5-fluoro-3-pyridyl]-[4-(ethylamino)-7H-pyrrolo[2,3-d]pyrimidin-5-yl]methanone]

Source: patent publication US8901118B2, “Compounds and methods for kinase modulation, and indications therefor” (Plexxikon Inc., priority 2010, dated 2014)
